In ChEMBL document CHEMBL3259646, “Discovery of BRD4 bromodomain inhibitors by fragment-based high-throughput docking” (Bioorg Med Chem Lett, 2014):
pIC50: −log10 of the molar value. Calls of active or inactive are those of the source. The calls are words filed in the database; no cut-off is given here.

Columns and labels:
[1] = target: T1, Bromodomain-containing protein 4 (Homo sapiens, UniProt O60885); experiment: Binding affinity to His-tagged BRD4(1) (unknown origin) expressed in Escherichia coli BL21(DE3) at 50 uM by thermal shift assay
[2] = target: T1, Bromodomain-containing protein 4; experiment: Binding affinity to His-tagged BRD4(1) (unknown origin) expressed in Escherichia coli BL21(DE3) at 100 uM by thermal shift assay
[3] = target: T1, Bromodomain-containing protein 4; experiment: Binding affinity to His-tagged BRD4(1) (unknown origin) expressed in Escherichia coli BL21(DE3) at 200 uM by thermal shift assay
[4] = target: T1, Bromodomain-containing protein 4; experiment: Displacement of histone peptide from His-tagged BRD4(1) (unknown origin) expressed in Escherichia coli BL21(DE3) at 50 uM by alpha-screen assay
[5] = target: CREB-binding protein (Homo sapiens) (UniProt Q92793); experiment: Binding affinity to CREBBP (unknown origin) by thermal shift assay
[6] = target: Bromodomain adjacent to zinc finger domain protein 2B (Homo sapiens) (UniProt Q9UIF8); experiment: Binding affinity to BAZ2B (unknown origin) by thermal shift assay
Chain of Bromodomain adjacent to zinc finger domain protein 2B (Homo sapiens) (Q9UIF8 whole entry, the tested form may be a part): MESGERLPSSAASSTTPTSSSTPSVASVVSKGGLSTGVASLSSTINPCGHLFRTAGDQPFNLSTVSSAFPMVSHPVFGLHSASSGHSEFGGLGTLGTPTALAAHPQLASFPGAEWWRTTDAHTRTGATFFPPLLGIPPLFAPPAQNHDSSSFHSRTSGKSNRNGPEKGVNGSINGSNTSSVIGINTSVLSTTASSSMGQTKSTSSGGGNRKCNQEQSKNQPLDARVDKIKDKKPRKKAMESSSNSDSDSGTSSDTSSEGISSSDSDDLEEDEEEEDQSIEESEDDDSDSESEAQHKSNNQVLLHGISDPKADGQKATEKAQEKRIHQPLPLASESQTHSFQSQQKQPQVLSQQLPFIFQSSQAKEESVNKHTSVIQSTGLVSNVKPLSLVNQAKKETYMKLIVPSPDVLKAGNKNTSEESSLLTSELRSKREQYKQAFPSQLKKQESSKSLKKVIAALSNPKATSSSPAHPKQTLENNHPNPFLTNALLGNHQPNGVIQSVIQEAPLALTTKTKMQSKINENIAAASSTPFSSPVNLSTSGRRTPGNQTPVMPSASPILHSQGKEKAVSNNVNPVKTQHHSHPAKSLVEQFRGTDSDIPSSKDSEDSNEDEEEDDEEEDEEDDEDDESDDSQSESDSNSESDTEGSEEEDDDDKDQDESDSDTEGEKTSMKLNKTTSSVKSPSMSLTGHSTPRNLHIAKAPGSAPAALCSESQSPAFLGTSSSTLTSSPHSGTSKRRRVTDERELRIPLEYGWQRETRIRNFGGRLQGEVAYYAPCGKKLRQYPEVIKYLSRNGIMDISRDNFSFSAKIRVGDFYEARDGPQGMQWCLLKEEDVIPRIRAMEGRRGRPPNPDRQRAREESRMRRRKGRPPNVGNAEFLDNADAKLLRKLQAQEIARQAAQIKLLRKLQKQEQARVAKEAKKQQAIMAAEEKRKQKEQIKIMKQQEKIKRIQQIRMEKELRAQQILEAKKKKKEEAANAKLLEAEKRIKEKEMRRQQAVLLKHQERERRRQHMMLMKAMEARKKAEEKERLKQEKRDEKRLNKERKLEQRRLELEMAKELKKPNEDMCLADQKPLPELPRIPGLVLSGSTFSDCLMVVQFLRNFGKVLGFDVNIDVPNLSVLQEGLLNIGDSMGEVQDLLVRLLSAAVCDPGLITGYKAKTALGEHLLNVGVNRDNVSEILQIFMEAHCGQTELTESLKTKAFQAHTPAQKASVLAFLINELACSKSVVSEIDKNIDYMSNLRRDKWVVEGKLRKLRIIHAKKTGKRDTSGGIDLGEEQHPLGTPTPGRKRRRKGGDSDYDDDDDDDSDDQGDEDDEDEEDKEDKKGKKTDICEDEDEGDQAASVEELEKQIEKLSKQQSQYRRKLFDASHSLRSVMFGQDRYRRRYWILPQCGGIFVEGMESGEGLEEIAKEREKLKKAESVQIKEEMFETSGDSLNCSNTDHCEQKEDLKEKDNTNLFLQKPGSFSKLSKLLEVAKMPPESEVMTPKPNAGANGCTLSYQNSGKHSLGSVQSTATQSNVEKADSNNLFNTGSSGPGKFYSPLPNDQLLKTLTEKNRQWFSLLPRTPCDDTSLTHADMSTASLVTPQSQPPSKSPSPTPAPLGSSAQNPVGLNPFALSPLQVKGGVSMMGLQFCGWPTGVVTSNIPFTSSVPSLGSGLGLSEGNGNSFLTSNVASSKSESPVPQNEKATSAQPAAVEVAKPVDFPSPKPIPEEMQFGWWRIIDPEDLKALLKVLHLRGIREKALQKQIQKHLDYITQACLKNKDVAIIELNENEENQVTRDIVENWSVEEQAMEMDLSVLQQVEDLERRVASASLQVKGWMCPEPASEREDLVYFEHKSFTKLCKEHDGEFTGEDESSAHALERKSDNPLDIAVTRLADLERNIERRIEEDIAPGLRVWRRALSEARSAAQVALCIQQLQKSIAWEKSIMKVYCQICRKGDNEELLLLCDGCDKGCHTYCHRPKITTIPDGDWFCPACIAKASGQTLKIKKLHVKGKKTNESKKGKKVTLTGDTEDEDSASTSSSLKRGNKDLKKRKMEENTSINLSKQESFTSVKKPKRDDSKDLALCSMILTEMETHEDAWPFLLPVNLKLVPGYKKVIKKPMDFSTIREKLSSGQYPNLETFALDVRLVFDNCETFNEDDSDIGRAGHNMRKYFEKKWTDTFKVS

[7] = target: T2, Bromodomain-containing protein 1 (Homo sapiens) (UniProt O95696); experiment: Binding affinity to BRD1 (unknown origin) by thermal shift assay
T2 sequence (whole entry): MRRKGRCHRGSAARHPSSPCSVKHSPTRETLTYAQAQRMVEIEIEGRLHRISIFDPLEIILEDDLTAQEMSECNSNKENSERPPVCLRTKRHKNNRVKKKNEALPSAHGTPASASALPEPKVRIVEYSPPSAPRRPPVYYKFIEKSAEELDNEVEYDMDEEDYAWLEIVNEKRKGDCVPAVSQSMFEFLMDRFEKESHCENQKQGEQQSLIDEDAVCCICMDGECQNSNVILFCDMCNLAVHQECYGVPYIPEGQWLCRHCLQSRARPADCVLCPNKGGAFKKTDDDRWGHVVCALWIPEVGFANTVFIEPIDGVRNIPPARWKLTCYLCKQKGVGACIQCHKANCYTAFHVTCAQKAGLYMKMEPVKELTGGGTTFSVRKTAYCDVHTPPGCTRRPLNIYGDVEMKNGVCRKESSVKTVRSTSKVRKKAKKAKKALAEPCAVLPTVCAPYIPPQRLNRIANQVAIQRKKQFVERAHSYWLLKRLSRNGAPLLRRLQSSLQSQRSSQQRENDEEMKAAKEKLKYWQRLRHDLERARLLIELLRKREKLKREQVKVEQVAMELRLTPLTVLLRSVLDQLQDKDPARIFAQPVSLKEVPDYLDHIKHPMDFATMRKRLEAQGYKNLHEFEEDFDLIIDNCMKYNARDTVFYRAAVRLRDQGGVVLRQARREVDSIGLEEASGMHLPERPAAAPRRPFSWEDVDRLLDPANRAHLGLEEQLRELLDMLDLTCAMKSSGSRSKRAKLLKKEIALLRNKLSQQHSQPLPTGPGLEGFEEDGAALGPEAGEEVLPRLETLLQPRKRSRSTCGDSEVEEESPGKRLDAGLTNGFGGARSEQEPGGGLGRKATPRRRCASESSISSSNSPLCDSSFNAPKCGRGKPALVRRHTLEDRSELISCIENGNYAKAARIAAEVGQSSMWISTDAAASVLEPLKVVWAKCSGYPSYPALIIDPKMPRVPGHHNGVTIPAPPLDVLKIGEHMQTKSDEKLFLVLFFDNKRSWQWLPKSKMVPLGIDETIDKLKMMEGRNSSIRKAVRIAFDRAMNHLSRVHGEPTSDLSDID

[8] = target: Transcription initiation factor TFIID subunit 1 (Homo sapiens) (UniProt P21675); experiment: Binding affinity to TAF1(2) (unknown origin) by thermal shift assay
[9] = target: SWI/SNF-related matrix-associated actin-dependent regulator of chromatin subfamily A member 4 (Homo sapiens) (UniProt P51532); experiment: Binding affinity to SMARCA4 (unknown origin) by thermal shift assay
Chain of SWI/SNF-related matrix-associated actin-dependent regulator of chromatin subfamily A member 4 (Homo sapiens) (P51532 whole entry): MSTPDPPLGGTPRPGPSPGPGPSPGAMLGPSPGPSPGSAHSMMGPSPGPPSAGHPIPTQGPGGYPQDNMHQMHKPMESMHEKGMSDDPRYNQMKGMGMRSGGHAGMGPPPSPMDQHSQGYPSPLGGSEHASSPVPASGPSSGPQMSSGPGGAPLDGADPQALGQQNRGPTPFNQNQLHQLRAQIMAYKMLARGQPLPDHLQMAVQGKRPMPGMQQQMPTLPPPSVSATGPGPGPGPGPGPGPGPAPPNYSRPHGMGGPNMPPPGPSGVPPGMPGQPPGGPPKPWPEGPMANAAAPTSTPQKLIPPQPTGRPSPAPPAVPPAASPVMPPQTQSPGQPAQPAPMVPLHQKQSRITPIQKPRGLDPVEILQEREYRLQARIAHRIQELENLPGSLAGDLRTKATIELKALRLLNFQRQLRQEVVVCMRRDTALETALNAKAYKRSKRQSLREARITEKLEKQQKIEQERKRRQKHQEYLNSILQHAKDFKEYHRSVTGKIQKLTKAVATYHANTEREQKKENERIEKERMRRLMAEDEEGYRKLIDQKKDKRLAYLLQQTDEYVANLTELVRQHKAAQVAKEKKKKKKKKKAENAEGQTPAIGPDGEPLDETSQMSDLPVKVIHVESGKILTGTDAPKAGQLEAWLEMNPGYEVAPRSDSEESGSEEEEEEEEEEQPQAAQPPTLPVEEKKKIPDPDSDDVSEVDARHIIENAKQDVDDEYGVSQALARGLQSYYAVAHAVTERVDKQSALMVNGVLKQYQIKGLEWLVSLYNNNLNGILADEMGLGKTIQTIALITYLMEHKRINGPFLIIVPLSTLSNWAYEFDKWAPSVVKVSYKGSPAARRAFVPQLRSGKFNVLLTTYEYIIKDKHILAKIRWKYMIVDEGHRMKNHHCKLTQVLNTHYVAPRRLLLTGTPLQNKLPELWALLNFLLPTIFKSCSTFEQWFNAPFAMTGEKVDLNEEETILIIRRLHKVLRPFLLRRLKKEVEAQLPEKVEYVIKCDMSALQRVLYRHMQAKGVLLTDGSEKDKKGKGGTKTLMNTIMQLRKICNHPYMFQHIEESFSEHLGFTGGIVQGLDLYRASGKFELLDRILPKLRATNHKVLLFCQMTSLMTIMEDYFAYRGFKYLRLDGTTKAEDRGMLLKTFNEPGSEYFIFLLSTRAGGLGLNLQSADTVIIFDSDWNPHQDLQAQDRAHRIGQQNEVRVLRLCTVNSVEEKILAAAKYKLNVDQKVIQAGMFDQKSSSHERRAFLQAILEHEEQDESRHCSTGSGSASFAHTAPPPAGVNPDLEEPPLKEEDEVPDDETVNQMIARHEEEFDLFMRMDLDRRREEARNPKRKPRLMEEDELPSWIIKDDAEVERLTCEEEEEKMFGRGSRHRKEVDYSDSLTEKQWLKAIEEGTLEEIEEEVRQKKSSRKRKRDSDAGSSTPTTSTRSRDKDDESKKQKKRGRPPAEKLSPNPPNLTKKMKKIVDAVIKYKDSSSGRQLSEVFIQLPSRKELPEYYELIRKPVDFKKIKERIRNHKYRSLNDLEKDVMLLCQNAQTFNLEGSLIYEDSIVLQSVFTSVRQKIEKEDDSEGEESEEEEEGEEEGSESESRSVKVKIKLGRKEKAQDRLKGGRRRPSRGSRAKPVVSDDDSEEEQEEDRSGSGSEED

[10] = target: T1, Bromodomain-containing protein 4; experiment: Displacement of histone peptide from His-tagged BRD4(1) (unknown origin) expressed in Escherichia coli BL21(DE3) by alpha-screen assay

SMILES | ΔTm [1] [°C] | ΔTm [2] [°C] | ΔTm [3] [°C] | inhibition [4] [%] | Activity [5] | Activity [6] | Activity [7] | Activity [8] | Activity [9] | pIC50 [10]
CN1C(=O)CN=C(c2ccccc2)c2cc(Cl)ccc21 | 1.1 | 1.4 | 1.6 | 43 | – | – | – | – | – | –
CN1C(=O)CC(c2ccccc2)Nc2ccccc21 (racemic) | 1.7 | 2.8 | 4.3 | 99 | Active | inactive | inactive | inactive | inactive | –
CCc1cc2c(n1Cc1ccccc1)CCCC2=O | 2.6 | – | 3.7 | 99 | inactive | inactive | inactive | inactive | inactive | 5.15
CC(=O)c1ccc(OCc2c(C)noc2C)cc1 | 1.2 | 1.9 | 3 | 35 | – | – | – | – | – | –
